The source of these data is PMC11772017 (Clinical and Translational Science, 2025).

For orientation: Ki means the dissociation constant of the complex between target and ligand, obtained from inhibition or displacement. A higher Ki goes with weaker binding. As a reminder, the Km is the concentration of substrate that gives half-maximal velocity.

The target of series [1] is T1, CYP2D6*2 (Homo sapiens, UniProt P10635, R296C/S486T). The experiment in a line: Inhibition of tramadol O-demethylation, CYP2D6*2 Bactosomes. As to conditions: for Ki Ratio CYP2D6*2/CYP2D6*1: Ki of variant allele / Ki of CYP2D6*1.
The target of series [2] is T2, CYP2D6*1 (Homo sapiens, UniProt P10635). As to the kind of experiment: Inhibition of tramadol O-demethylation, CYP2D6*1 Bactosomes.
For series [3], the target named is T3, CYP2D6*17 (Homo sapiens, UniProt P10635, R296C/S486T/T107I). As to the kind of experiment: Inhibition of tramadol O-demethylation, CYP2D6*17 Bactosomes. Conditions: for Ki Ratio CYP2D6*17/CYP2D6*1: Ki of variant allele / Ki of CYP2D6*1.
Series [4] addresses T4, CYP2D6*10 (Homo sapiens, UniProt P10635, P34S/S486T). As to the kind of experiment: Inhibition of tramadol O-demethylation, CYP2D6*10 Bactosomes. Conditions: for Ki Ratio CYP2D6*10/CYP2D6*1: Ki of variant allele / Ki of CYP2D6*1.
The target in series [5] is T4, CYP2D6*10.
Series [6] deals with T3, CYP2D6*17.
Series [7] has as its system CYP2D6*17. As to conditions: tramadol as substrate; cited from earlier work.
Series [8] deals with T1, CYP2D6*2.
Series [9] relates to CYP2D6*10. As to conditions: microsomes prepared from insect cells; cited from earlier work.
The target of series [10] is T2, CYP2D6*1.

Counter-ions that a name gives are not always drawn.

On to `CC(NC(C)(C)C)C(=O)c1cccc(Cl)c1` (stereo not drawn) [Bupropion, bupropion], for which, on CYP2D6*2 [1], the inhibition constant (Ki) stood at 11.5 µM and the “Ki Ratio CYP2D6*2/CYP2D6*1” value was determined as 0.96. The same compound had a Ki at CYP2D6*1 [2] of 11.9 µM. Further, at CYP2D6*17 [3], the affinity corresponds to a Ki of 20.2 µM and the “Ki Ratio CYP2D6*17/CYP2D6*1” value turned out to be 1.70. Besides, on CYP2D6*10 [4], the inhibitory constant (Ki) stood at 55.9 µM and the “Ki Ratio CYP2D6*10/CYP2D6*1” value is 4.69.
As to `CN(C/C=C/C#CC(C)(C)C)Cc1cccc2ccccc12` [Terbinafine, terbinafine], at CYP2D6*2 [1], the inhibitory constant (Ki) stood at 0.067 µM and the “Ki Ratio CYP2D6*2/CYP2D6*1” value is 3.87. The Ki at CYP2D6*1 [2] came to 0.0173 µM. At CYP2D6*17 [3], affinity was put at a Ki of 0.844 µM and the “Ki Ratio CYP2D6*17/CYP2D6*1” value is 48.77. Moreover, on CYP2D6*10 [4], the Ki turned out to be 0.235 µM and the “Ki Ratio CYP2D6*10/CYP2D6*1” value worked out at 13.61.
For `COc1cccc(C2(O)CCCCC2CN(C)C)c1` (stereo not drawn) [Tramadol, tramadol hydrochloride], the “intrinsic clearance compared to CYP2D6*1” value is reported as 20% on CYP2D6*10 [5] (CYP2D6*10, relative to CYP2D6*1); 10% at CYP2D6*17 [6] (CYP2D6*17, relative to CYP2D6*1); 180% at CYP2D6*2 [8] (CYP2D6*2, relative to CYP2D6*1). For the same compound, the “CLint ratio CYP2D6*X/CYP2D6*1” value at CYP2D6*10 [5] (CYP2D6*10/CYP2D6*1) was 0.2; at CYP2D6*17 [6] (CYP2D6*17/CYP2D6*1) it was 0.1; on CYP2D6*2 [8] (CYP2D6*2/CYP2D6*1), 1.8. In addition, the CLint at CYP2D6*10 [5] (CYP2D6*10, CLint = Vmax/Km) was determined as 0.1 μL/min/pmol P450; at CYP2D6*2 [8] (CYP2D6*2, CLint = Vmax/Km), 0.7 μL/min/pmol P450; at CYP2D6*1 [10] (CYP2D6*1, CLint = Vmax/Km), 0.4 μL/min/pmol P450. The Vmax at CYP2D6*10 [5] (CYP2D6*10, O-desmethyltramadol formation) came out at 13.6 pmol/min/pmol P450; at CYP2D6*17 [6] (CYP2D6*17, O-desmethyltramadol formation), 5.6 pmol/min/pmol P450; at CYP2D6*2 [8] (CYP2D6*2, O-desmethyltramadol formation), 39.7 pmol/min/pmol P450; on CYP2D6*1 [10] (CYP2D6*1, O-desmethyltramadol formation) it was 22.6 pmol/min/pmol P450. Also, the Km at 30 min on CYP2D6*10 [5] (human, recombinant CYP2D6*10 Bactosomes, pH 7.4) stood at 204 µM; on CYP2D6*17 [6] (human, recombinant CYP2D6*17 Bactosomes, pH 7.4), 149 µM; at CYP2D6*2 [8] (human, recombinant CYP2D6*2 Bactosomes, pH 7.4), 59.4 µM; at CYP2D6*1 [10] (human, recombinant CYP2D6*1 Bactosomes, pH 7.4) it was 59.6 µM. Moreover, the “intrinsic clearance relative to CYP2D6*1” value with CYP2D6*17 [7] is listed as 36%. The “intrinsic clearance value, % of that for CYP2D6*1” value in the series with CYP2D6*10 [9] is listed as 6.9%.
